Reference: patent US20250197451A1, “USE OF BIOACTIVE POLYPEPTIDE SYNTHESIZED ON BASIS OF KDM2B SEQUENCE IN NEURAL DIFFERENTIATION AND REGENERATION AND REPAIR OF MESENCHYMAL STEM CELLS” (CAPITAL MEDICAL UNIVERSITY SCHOOL OF STOMATOLOGY, priority 2021, published 2025)
Where “and” joins values, the source holds several entries; their conditions need not be identical. Equal values may be shown once. Ends that are not written are not given here.

How the values were obtained:
[1] = biological target: EZH2 protein (Homo sapiens, UniProt Q15910); experiment: KDM2B polypeptide microarray immune-hybridization with biotin-labelled EZH2 protein; type: binding; settings: for Intensity (%) (gray intensity of colored points on the KDM2B polypeptide microarray): biotin-labelled EZH2 1 μg/ml, highest optical density set to 100%, some points noise/spike; for binding site of KDM2B to EZH2 (positive / negative): polypeptide microarray
Sequence of EZH2 protein (Q15910 whole entry, species assumed): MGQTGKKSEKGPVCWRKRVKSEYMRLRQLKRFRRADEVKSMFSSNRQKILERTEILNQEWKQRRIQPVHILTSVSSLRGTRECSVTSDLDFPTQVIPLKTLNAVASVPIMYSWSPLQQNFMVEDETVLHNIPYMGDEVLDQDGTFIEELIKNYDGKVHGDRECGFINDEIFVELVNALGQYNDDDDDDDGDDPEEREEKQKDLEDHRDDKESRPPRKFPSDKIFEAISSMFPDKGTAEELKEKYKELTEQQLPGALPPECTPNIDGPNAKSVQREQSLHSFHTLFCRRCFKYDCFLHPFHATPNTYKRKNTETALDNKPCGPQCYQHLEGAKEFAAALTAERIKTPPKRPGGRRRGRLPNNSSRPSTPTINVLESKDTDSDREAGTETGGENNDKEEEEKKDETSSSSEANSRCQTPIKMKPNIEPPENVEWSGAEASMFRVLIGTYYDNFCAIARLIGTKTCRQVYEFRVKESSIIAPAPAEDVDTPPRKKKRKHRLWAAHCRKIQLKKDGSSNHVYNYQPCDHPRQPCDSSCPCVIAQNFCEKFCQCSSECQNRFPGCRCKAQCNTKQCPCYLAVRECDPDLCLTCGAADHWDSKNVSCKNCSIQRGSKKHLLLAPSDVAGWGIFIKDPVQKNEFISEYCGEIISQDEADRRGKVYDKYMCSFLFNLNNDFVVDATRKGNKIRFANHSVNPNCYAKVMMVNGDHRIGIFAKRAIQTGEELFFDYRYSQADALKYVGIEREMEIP
Description: […]

[2] = tested on: stem cells from apical papilla (SCAPs); experiment: neural induction in vitro: neurosphere formation with βIII-TUBULIN / NESTIN immunofluorescence staining; type: cell-based, human
Description: […]

[3] = tested on: rat model of spinal cord injury (completely transected T10 spinal cord); experiment: rat model of spinal cord injury, transplantation of stem cells from apical papilla (BBB score, gross appearance); type: in vivo; settings: SCI + SCAPs pre-treated with 10 μg/ml peptide 24 hours, individual rats
Description: […]

[4] = tested on: rat model of spinal cord injury (complete transection site T10 spinal cord); experiment: rat model of spinal cord injury, local injection of peptide alone (BBB score, gross appearance); type: in vivo; settings: SCI + peptide alone, 10 μg/ml in 30 μl weekly local injection, individual rats
Protocol: 10 μg/ml of peptide 46-47 in a total of 30 μl was weekly injected into 10-week-old rats at the complete transection site T10 spinal cord (5 individual rats per group).

[5] = tested on: KDM2B; experiment: real-time fluorescence reverse transcription quantitative PCR, KDM2B/GAPDH in SCAPs; type: cell-based, human
Protocol: The plasmid was constructed according to standard methods. The complementary shRNA sequence targeting KDM2B gene was cloned into the viral vector pLKO.1 plasmid, sequenced and identified to complete the construction of the KDM2B shRNA plasmid. After PCR primers were designed for the full-length sequence of the KDM2B gene, the full-length sequence of the KDM2B gene was obtained by amplification, and the HA Tag was added. The tagged full-length KDM2B gene was ligated with the pQCXIN retroviral expression vector, sequenced and identified to obtain the plasmid containing the HA tagged full-length KDM2B gene. The virus packaging was carried out, and the resulting virus was collected, and the virus titer was measured. The virus was aliquoted and stored in the refrigerator at −80° C. The virus at a titer of 10-7 was incubated with stem cells from apical papillae in the presence of polybrene for 48 hours for infection, and the antibiotic was used to screen the infected cells. The sequence of the complementary shRNA targeting the KDM2B gene was represented as KDM2Bsh, with a nucleic acid sequence of 5′-[…]-3′ (SEQ ID NO: 287).

[6] = SCAPs + 10 μg/ml peptide, Day 9 of induction, individual samples
[7] = SCAPs + 10 μg/ml peptide, Day 9 of induction, mean of 5 samples
[8] = virally transfected SCAPs (overexpression or knockdown), Day 9, individual samples

## L A V D Y P K T P T G S P A T (LAVDYPKTPTGSPAT; synthesized KDM2B peptide) [compound 98]
[1]
  Intensity (%) (gray intensity of colored points on the KDM2B polypeptide microarray): 0.77%

## E E E A C D Q Q P Q E E E E K (EEEACDQQPQEEEEK; synthesized KDM2B peptide) [peptide 83]
[1]
  binding site of KDM2B to EZH2 (positive / negative): negative

## C I M R Q C I A P V L P H T A (CIMRQCIAPVLPHTA; synthesized KDM2B peptide) [compound 130]
[1]
  Intensity (%) (gray intensity of colored points on the KDM2B polypeptide microarray): 30.8%

## I Y E I E D R T R V Q P K F R (IYEIEDRTRVQPKFR; synthesized KDM2B peptide) [compound 69]
[1]
  Intensity (%) (gray intensity of colored points on the KDM2B polypeptide microarray): 0.15%

## ConPP: control polypeptide synthesized from the negative binding sites (peptide 83-84) of KDM2B, with cell-penetrating peptide and FITC label (EEEACDQQPQEEEEKDEEGE; also: cell-penetrating peptide and FITC label, sites not given here)
[2]; [6]
  Number of NESTIN-positive neurosphers: 3 (2×) and 4 (2×) and 6
  Number of βIII-TUBULIN-positive neurosphers: 8 (2×) and 6 (2×) and 7
[2]; [7]
  Number of NESTIN-positive neurosphers, Means: 4
  Number of βIII-TUBULIN-positive neurosphers, Means: 7
[3]; 0 w
  BBB score of hind limb motor function: 5 and 4 (4×)
[3]; 1 w
  BBB score of hind limb motor function: 5 (3×) and 6 (2×)
[3]; 2 w
  BBB score of hind limb motor function: 6 (2×) and 7 (3×)
[3]; 3 w
  BBB score of hind limb motor function: 8 (3×) and 9 (2×)
[3]; 4 w
  BBB score of hind limb motor function: 10 (2×) and 11 and 12 and 13
[4]; 1 w
  BBB score of hind limb motor function: 6 (3×) and 5 (2×)
[4]; 2 w
  BBB score of hind limb motor function: 7 (2×) and 6 (2×) and 8
[4]; 3 w
  BBB score of hind limb motor function: 9 (3×) and 10 and 8
[4]; 4 w
  BBB score of hind limb motor function: 12 (2×) and 11 (3×)
[4]
  BBB score of hind limb motor function: 4 (3×) and 5 (2×)

## T R D S L T E I N L S D C N K (TRDSLTEINLSDCNK; synthesized KDM2B peptide) [compound 254]
[1]
  Intensity (%) (gray intensity of colored points on the KDM2B polypeptide microarray): 100%

## T E I N L S D C N K V T D Q C (TEINLSDCNKVTDQC; synthesized KDM2B peptide) [compound 255]
[1]
  Intensity (%) (gray intensity of colored points on the KDM2B polypeptide microarray): 100%

## G K Q S D I F L G D R V E R C (GKQSDIFLGDRVERC; synthesized KDM2B peptide) [compound 57]
[1]
  Intensity (%) (gray intensity of colored points on the KDM2B polypeptide microarray): 39.95%

## D Q Q P Q E E E E K D E E G E (DQQPQEEEEKDEEGE; synthesized KDM2B peptide) [peptide 84]
[1]
  binding site of KDM2B to EZH2 (positive / negative): negative

## 5′-ATTTTGACGGGGTGGATAATCTG-3′ (expressed or natural sequence) [KDM2Bsh, complementary shRNA targeting the KDM2B gene, cloned into viral vector pLKO.1, reference compound]
[2]; [8]
  Number of NESTIN-positive neurospheres: 5 and 4 and 2 (2×) and 3
  Number of βIII-TUBULI-positive neurospheres: 4 (2×) and 2 and 6 and 3
[2]; virally transfected SCAPs (overexpression or knockdown), Day 9, mean of 5 samples, Vector 9, Scramsh 9
  Number of βIII-TUBULI-positive neurospheres, Means: 3.8
[2]; virally transfected SCAPs (overexpression or knockdown), Day 9, mean of 5 samples, Vector 11, Scramsh 8.2
  Number of NESTIN-positive neurospheres, Means: 3.2
[5]; individual samples
  Expression of KDM2B/GAPDH in KDM2B-knockdown SCAPs (fold): 0.34 fold and 0.31 fold and 0.28 fold
[5]; mean of 3 samples, Scramsh 1.0003
  Expression of KDM2B/GAPDH in KDM2B-knockdown SCAPs (fold), Means: 0.3067 fold

## A V G T T T R D S L T E I N L (AVGTTTRDSLTEINL; synthesized KDM2B peptide) [compound 253]
[1]
  Intensity (%) (gray intensity of colored points on the KDM2B polypeptide microarray): 70.41%

## V L E R Y V Y C V T Q R S H L (VLERYVYCVTQRSHL; synthesized KDM2B peptide) [compound 74]
[1]
  Intensity (%) (gray intensity of colored points on the KDM2B polypeptide microarray): 0.25%

## Q P K F R Y P F Y Y E M C W Y (QPKFRYPFYYEMCWY; synthesized KDM2B peptide) [compound 71]
[1]
  Intensity (%) (gray intensity of colored points on the KDM2B polypeptide microarray): 0.57%
